# Test results taken from ChEMBL document CHEMBL3526145, “Metabolism, excretion, and pharmacokinetics of ((3,3-difluoropyrrolidin-1-yl)((2S,4S)-4-(4-(pyrimidin-2-yl)piperazin-1-yl)pyrrolidin-2-yl)methanone, a dipeptidyl peptidase inhibitor, in rat, dog and human” (Drug Metab Dispos, 2012).
# Legend:
# [1] = Drug level in urine of Sprague-Dawley rat treated with [14C]PF-00734200 at 5 mg/kg, po administered as single dose by LC-MS/MS method; assay type: ADME, organism-based; design: dose 5 mg/kg, route oral; conditions: in vivo
# [2] = Drug level in feces of Sprague-Dawley rat treated with [14C]PF-00734200 at 5 mg/kg, po administered as single dose by LC-MS/MS method; assay type: ADME, organism-based; design: dose 5 mg/kg, route oral; conditions: in vivo
# [3] = Drug level in urine of beagle dog treated with [14C]PF-00734200 at 5 mg/kg, po administered as single dose by LC-MS/MS method; assay type: ADME, organism-based, Canis lupus familiaris; design: dose 5 mg/kg, route oral; conditions: in vivo
# [4] = Drug level in feces of beagle dog treated with [14C]PF-00734200 at 5 mg/kg, po administered as single dose by LC-MS/MS method; assay type: ADME, organism-based, Canis lupus familiaris; design: dose 5 mg/kg, route oral; conditions: in vivo
# Canis familiaris = test: Total drug level in beagle dog treated with [14C]PF-00734200 assessed as total radio activity at 5 mg/kg, po administered as single dose […]; assay type: ADME, organism-based, Canis lupus familiaris; design: dose 5 mg/kg, route oral; conditions: in vivo
# [5] = Drug level in feces of human treated with [14C]PF-00734200 at […], po administered as single dose by LC-MS/MS method; assay type: ADME, organism-based; design: route oral; conditions: in vivo
# Homo sapiens [6] = test: Total drug level in human treated with [14C]PF-00734200 assessed as total radio activity at […], po administered as single dose […]; assay type: ADME, organism-based; design: route oral; conditions: in vivo
# Plasma [7] = test: Drug level in Sprague-Dawley rat plasma treated with [14C]PF-00734200 at 5 mg/kg, po administered as single dose by LC-MS/MS method; assay type: ADME, organism-based; design: dose 5 mg/kg, route oral; conditions: in vivo
# Plasma [8] = test: Drug level in beagle dog plasma treated with [14C]PF-00734200 at 5 mg/kg, po administered as single dose by LC-MS/MS method; assay type: ADME, organism-based, Canis lupus familiaris; design: dose 5 mg/kg, route oral; conditions: in vivo
# Rattus norvegicus = test: Total drug level in Sprague-Dawley rat treated with [14C]PF-00734200 assessed as total radio activity at 5 mg/kg, po administered as single dose […]; assay type: ADME, organism-based; design: dose 5 mg/kg, route oral; conditions: in vivo
# [9] = Drug level in bile of bile duct-cannulated Sprague-Dawley rat treated with [14C]PF-00734200 at 5 mg/kg, po administered as single dose by LC-MS/MS method; assay type: ADME, organism-based; design: dose 5 mg/kg, route oral; conditions: in vivo
# [10] = Retention time of the compound by HPLC method; assay type: physicochemical
# Homo sapiens [11] = test: AUC (0 to 168 hrs) in human treated with [14C]PF-00734200 at […], po administered as single dose; assay type: ADME, organism-based, Plasma; design: time < 168 hr, route oral; conditions: in vivo
# Homo sapiens [12] = test: AUC (0 to infinity) in human treated with [14C]PF-00734200 at […], po administered as single dose; assay type: ADME, organism-based, Plasma; design: route oral, time infinity; conditions: in vivo
# Homo sapiens [13] = test: Tmax in human treated with [14C]PF-00734200 at […], po administered as single dose; assay type: ADME, organism-based; design: route oral; conditions: in vivo
# Homo sapiens [14] = test: Cmax in human treated with [14C]PF-00734200 at […], po administered as single dose; assay type: ADME, organism-based; design: route oral; conditions: in vivo
# Homo sapiens [15] = test: Elimination half life in human treated with [14C]PF-00734200 at […], po administered as single dose; assay type: ADME, organism-based; design: route oral; conditions: in vivo
# Homo sapiens [16] = test: Oral clearance in human treated with [14C]PF-00734200 at […], po administered as single dose; assay type: ADME, organism-based; design: route oral; conditions: in vivo
# [17] = Drug level in urine of human treated with [14C]PF-00734200 at […], po administered as single dose by LC-MS/MS method; assay type: ADME, organism-based; design: route oral; conditions: in vivo
# Serum = test: Drug level in human serum treated with [14C]PF-00734200 at […], po administered as single dose by LC-MS/MS method; assay type: ADME, organism-based; design: route oral; conditions: in vivo
# Cytochrome P450 2D6 = Cytochrome P450 2D6 (Homo sapiens, UniProt P10635); test: Drug metabolism assessed as human CYP2D6-mediated metabolite (3,3-difluoropyrrolidin-1-yl){(2S,4S)-4-[4-(5-hydroxypyrimidin-2-yl)piperazin-1-yl]pyrrolidin-2-yl}methanone formation by LC-MS/MS method; assay type: ADME; conditions: recombinant enzyme
# Cytochrome P450 3A4 = Cytochrome P450 3A4 (Homo sapiens, UniProt P08684); test: Drug metabolism assessed as human CYP3A4-mediated metabolite (3,3-difluoropyrrolidin-1-yl){(2S,4S)-4-[4-(5-hydroxypyrimidin-2-yl)piperazin-1-yl]pyrrolidin-2-yl}methanone formation by LC-MS/MS method; assay type: ADME; conditions: recombinant enzyme
# Chain of Cytochrome P450 3A4 (P08684 whole entry): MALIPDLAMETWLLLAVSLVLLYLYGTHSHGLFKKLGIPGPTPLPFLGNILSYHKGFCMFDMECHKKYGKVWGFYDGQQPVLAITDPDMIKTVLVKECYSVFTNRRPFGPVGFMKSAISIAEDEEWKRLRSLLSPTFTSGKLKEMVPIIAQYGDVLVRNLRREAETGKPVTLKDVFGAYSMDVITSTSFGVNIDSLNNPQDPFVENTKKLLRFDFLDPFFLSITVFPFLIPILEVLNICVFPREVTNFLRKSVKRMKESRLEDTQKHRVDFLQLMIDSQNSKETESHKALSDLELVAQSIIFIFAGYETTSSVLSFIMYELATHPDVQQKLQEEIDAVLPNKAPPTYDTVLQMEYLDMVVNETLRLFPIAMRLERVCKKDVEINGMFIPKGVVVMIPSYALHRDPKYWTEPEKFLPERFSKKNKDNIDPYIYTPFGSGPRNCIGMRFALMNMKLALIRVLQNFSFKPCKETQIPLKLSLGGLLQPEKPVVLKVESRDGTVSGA
# Chain of Cytochrome P450 2D6 (P10635 whole entry): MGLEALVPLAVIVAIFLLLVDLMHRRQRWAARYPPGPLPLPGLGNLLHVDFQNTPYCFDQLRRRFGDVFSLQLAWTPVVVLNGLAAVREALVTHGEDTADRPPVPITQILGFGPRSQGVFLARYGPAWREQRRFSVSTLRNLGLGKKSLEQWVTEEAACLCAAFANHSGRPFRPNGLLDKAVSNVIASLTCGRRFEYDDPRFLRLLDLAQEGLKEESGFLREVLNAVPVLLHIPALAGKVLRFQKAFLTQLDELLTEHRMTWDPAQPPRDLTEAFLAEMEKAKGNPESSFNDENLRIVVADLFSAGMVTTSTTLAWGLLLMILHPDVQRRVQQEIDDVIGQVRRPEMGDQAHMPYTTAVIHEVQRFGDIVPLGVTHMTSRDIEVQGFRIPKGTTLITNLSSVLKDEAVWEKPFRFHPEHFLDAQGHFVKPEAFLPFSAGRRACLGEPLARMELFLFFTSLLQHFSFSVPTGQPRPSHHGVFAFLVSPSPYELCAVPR
Compound,Drug uptake [1],Drug uptake [3],Drug uptake (Canis familiaris),Drug uptake (Homo sapiens [6]),Drug uptake (Plasma [7]),Drug uptake (Plasma [8]),Drug uptake (Rattus norvegicus),Retention_time [10],Drug uptake [17],further results
N=C(N)N1CCN([C@@H]2CN[C@H](C(=O)N3CCC(F)(F)C3)C2)CC1,3.1%,1.2%,5.8%,3%,2.6%,0.8%,20.9%,3 min,,Drug uptake [2]: 17.8%; Drug uptake [4]: 4.6%; Drug uptake [5]: 3%; Drug uptake [9]: 7.3%
O=C([C@@H]1C[C@H](N2CCN(c3ncccn3)CC2)CN1)N1CCC(F)(F)C1 [GOSOGLIPTIN],11%,25.6%,27.4%,48.9%,79.9%,80.1%,12.1%,,48.5%,Drug uptake [2]: 1.1%; AUC (Homo sapiens [11]): 2560 ng·h/mL; AUC (Homo sapiens [12]): 2660 ng·h/mL; Tmax (Homo sapiens [13]): 1 h; Cmax (Homo sapiens [14]): 241.3 ng/mL; beta t1/2 (Homo sapiens [15]): 63.5 h; CL/F (Homo sapiens [16]): 125.3 mL/min; Drug uptake [4]: 1.8%; Drug uptake [5]: 0.4%; Drug uptake (Serum): 94.5%; Drug metabolism (Cytochrome P450 2D6): metabolite_detected; Drug metabolism (Cytochrome P450 3A4): metabolite_detected
c1cnc(N2CCNCC2)nc1 [2-PIPERAZIN-1-YL-PYRIMIDINE],1.4%,0.9%,0.9%,,1.7%,0.7%,1.4%,6.5 min,,
NC(=O)N1C[C@@H](N2CCN(c3ncc(O)cn3)CC2)C[C@H]1C(=O)N1CCC(F)(F)C1,,0.6%,,,,,,26 min,,
O=C([C@@H]1C[C@H](N2CCN(c3ncc(OS(=O)(=O)O)cn3)CC2)CN1)N1CCC(F)(F)C1,,2.6%,,,,1.8%,,24.5 min,,Drug uptake [9]: 2.1%

# Further lines, with some results ahead:
Drug uptake [1],Drug uptake [3],Drug uptake (Canis familiaris),Drug uptake (Homo sapiens [6]),Drug uptake (Plasma [7]),Drug uptake (Plasma [8]),Drug uptake (Rattus norvegicus),Retention_time [10],Drug uptake [17],Compound,further results
,,,0.9%,,,,29.2 min,0.9%,O=C([C@@H]1C[C@H](N2CCN(c3ncccn3)CC2)CN1[C@@H]1O[C@H](CO)[C@@H](O)[C@H](O)[C@H]1O)N1CCC(F)(F)C1,
,1.6%,,6%,,1.5%,,28.2 min,6%,O=C(O)[C@H]1O[C@@H](OC(=O)N2C[C@@H](N3CCN(c4ncccn4)CC3)C[C@H]2C(=O)N2CCC(F)(F)C2)[C@H](O)[C@@H](O)[C@@H]1O,Drug uptake (Serum): 1.2%
,,,,,1.8%,,24.5 min,,O=C(O)[C@H]1O[C@@H](OC(=O)N2C[C@@H](N3CCN(c4ncc(O)cn4)CC3)C[C@H]2C(=O)N2CCC(F)(F)C2)[C@H](O)[C@@H](O)[C@@H]1O,
